Values of other authors as cited in PubChem BioAssay AID1259409 (Chemical Carcinogenesis Research Information System (CCRIS), 2018).

System: rodent chemically induced tumor inhibition, incidence and multiplicity
Experiment: CCRIS tumor inhibitor studies
Conditions: Dose [Inhibitor]: 0, Route [Inhibitor]: ORAL

Q: With COc1ccc2c(c1)c(CC(=O)O)c(C)n2C(=O)c1ccc(Cl)cc1 as the molecule, how does the “tumour outcome (control, treated, inhibition, significance)” value (Carcinogen: N-BUTYL-N-(4-HYDROXYBUTYL)NITROSAMINE, 3817-11-6, 20 PPM IN DRINKING WATER FOR 40 WK BEGINNING POST CARCINOGEN TREATMENT (STUDY DURATION: 44 WK), Species: RAT, Strain/Sex: F344/MALE, Target Tissue: Type of Lesion: URINARY BLADDER: PAPILLOMA, Dose [Carcinogen]: 0.05% IN DRINKING WATER FOR 4 WK, Promoter: BUTYLATED HYDROXYANISOLE, 25013-16-5) read?
A: 14/15 (93%), 4/15 (27%), 71%, p<0.01

Q: And the “tumour outcome (control, treated, inhibition, significance)” value (Carcinogen: N-BUTYL-N-(4-HYDROXYBUTYL)NITROSAMINE, 3817-11-6, 20 PPM IN DRINKING WATER FOR 40 WK BEGINNING POST CARCINOGEN TREATMENT (STUDY DURATION: 44 WK), Species: RAT, Strain/Sex: F344/MALE, Target Tissue: Type of Lesion: URINARY BLADDER: PAPILLOMA, Dose [Carcinogen]: 0.05% IN DRINKING WATER FOR 4 WK, Promoter: SODIUM L-ASCORBATE, 134-03-2)?
A: 15/15 (100%), 9/15 (60%), 40%, p<0.01

Q: What about the “tumour outcome (control, treated, inhibition, significance)” value (Carcinogen: N-BUTYL-N-(4-HYDROXYBUTYL)NITROSAMINE, 3817-11-6, 20 PPM IN DRINKING WATER FOR 40 WK BEGINNING POST CARCINOGEN TREATMENT (STUDY DURATION: 44 WK), Species: RAT, Strain/Sex: F344/MALE, Target Tissue: Type of Lesion: URINARY BLADDER: TRANSITIONAL CELL CARCINOMA, Dose [Carcinogen]: 0.05% IN DRINKING WATER FOR 4 WK, Promoter: BUTYLATED HYDROXYANISOLE, 25013-16-5) of the same molecule?
A: 10/15 (67%), 1/15 (7%), 90%, p<0.01

Q: What about the “tumour outcome (control, treated, inhibition, significance)” value (Carcinogen: N-BUTYL-N-(4-HYDROXYBUTYL)NITROSAMINE, 3817-11-6, 20 PPM IN DRINKING WATER FOR 40 WK BEGINNING POST CARCINOGEN TREATMENT (STUDY DURATION: 44 WK), Species: RAT, Strain/Sex: F344/MALE, Target Tissue: Type of Lesion: URINARY BLADDER: TRANSITIONAL CELL CARCINOMA, Dose [Carcinogen]: 0.05% IN DRINKING WATER FOR 4 WK, Promoter: SODIUM L-ASCORBATE, 134-03-2) of the same molecule?
A: 15/15 (100%), 5/15 (33%), 67%, p<0.01

Q: What about the “tumour outcome (control, treated, inhibition, significance)” value (Carcinogen: N-BUTYL-N-(4-HYDROXYBUTYL)NITROSAMINE, 53609-64-6, 7.5 MG/KG OF DIET STARTING 1 WK PRIOR TO CARCINOGEN DOSE FROM 49 D OF AGE AND CONTINUING FOR DURATION OF STUDY (STUDY, Species: MOUSE, Strain/Sex: BDF/MALE, Target Tissue: Type of Lesion: BLADDER: CARCINOMA, Dose [Carcinogen]: 7.5 MG IN 0.1 ML OF ETHANOL:WATER (20:80) 1/WK FOR 8 WK, Promoter: NONE USED) of the same molecule?
A: 14%, 4%, 71%, p<0.05

Q: And the “tumour outcome (control, treated, inhibition, significance)” value (Carcinogen: N-BUTYL-N-(4-HYDROXYBUTYL)NITROSAMINE, 53609-64-6, 7.5 MG/KG OF DIET STARTING 1 WK PRIOR TO CARCINOGEN DOSE FROM 49 D OF AGE AND CONTINUING FOR DURATION OF STUDY (STUDY, Species: MOUSE, Strain/Sex: BDF/MALE, Target Tissue: Type of Lesion: BLADDER: PAPILLOMA, Dose [Carcinogen]: 7.5 MG IN 0.1 ML OF ETHANOL:WATER (20:80) 1/WK FOR 8 WK, Promoter: NONE USED)?
A: 13%, 1%, 92%, p<0.01

Q: What about the “tumour outcome (control, treated, inhibition, significance)” value (Carcinogen: N-BUTYL-N-(4-HYDROXYBUTYL)NITROSAMINE, 53609-64-6, 15 MG/KG OF DIET STARTING 1 WK PRIOR TO CARCINOGEN DOSE AT 49 D OF AGE AND CONTINUING FOR DURATION OF STUDY (STUDY DU, Species: MOUSE, Strain/Sex: BDF/MALE, Target Tissue: Type of Lesion: BLADDER: CARCINOMA, Dose [Carcinogen]: 7.5 MG IN 0.1 ML OF ETHANOL:WATER (20:80) 1/WK FOR 8 WK, Promoter: NONE USED) of the same molecule?
A: 14%, 0%, 100%, p<0.01

Q: And the “tumour outcome (control, treated, inhibition, significance)” value (Carcinogen: N-BUTYL-N-(4-HYDROXYBUTYL)NITROSAMINE, 53609-64-6, 15 MG/KG OF DIET STARTING 1 WK PRIOR TO CARCINOGEN DOSE AT 49 D OF AGE AND CONTINUING FOR DURATION OF STUDY (STUDY DU, Species: MOUSE, Strain/Sex: BDF/MALE, Target Tissue: Type of Lesion: BLADDER: PAPILLOMA, Dose [Carcinogen]: 7.5 MG IN 0.1 ML OF ETHANOL:WATER (20:80) 1/WK FOR 8 WK, Promoter: NONE USED)?
A: 13%, 0%, 100%, p<0.01

Q: And the “tumour outcome (control, treated, inhibition, significance)” value (Carcinogen: N-ETHYL-N-NITROSOUREA, 759-73-9, 20 MG/L IN DRINKING WATER FOR 12 MO ADMINISTERED TO OFFSPRING OF CARCINOGEN-TREATED MOTHERS (STUDY DURATION: 12 MO), Species: RAT, Strain/Sex: ALBINO/MALE, FEMALE, Target Tissue: Type of Lesion: BRAIN: TUMOR, Dose [Carcinogen]: 75 MG/KG BW ADMINISTERED INTRAPERITONEALLY TO MOTHERS 21 D POST CONCEPTION, Promoter: NONE USED)?
A: 36/42 (86%), 14/25 (56%), 35%, p<0.05

Q: What about the “tumour outcome (control, treated, inhibition, significance)” value (Carcinogen: N-ETHYL-N-NITROSOUREA, 759-73-9, 20 MG/L IN DRINKING WATER FOR 12 MO ADMINISTERED TO OFFSPRING OF CARCINOGEN-TREATED MOTHERS (STUDY DURATION: 12 MO), Species: RAT, Strain/Sex: ALBINO/MALE, FEMALE, Target Tissue: Type of Lesion: KIDNEY: TUMOR, Dose [Carcinogen]: 75 MG/KG BW ADMINISTERED INTRAPERITONEALLY TO MOTHERS 21 D POST CONCEPTION, Promoter: NONE USED) of the same molecule?
A: 19/42 (45%), 8/25 (32%), 29%, not significant
